Where a name gives a salt, the structure may show the parent alone.
Molecular target: T1, recombinant human α1D receptor (Homo sapiens, UniProt P25100)
T1 construct: expressed in transfected cells; host or cells: human embryonic kidney 293 cells (HEK93 [sic]), membranes
T1 sequence (P25100 1-572): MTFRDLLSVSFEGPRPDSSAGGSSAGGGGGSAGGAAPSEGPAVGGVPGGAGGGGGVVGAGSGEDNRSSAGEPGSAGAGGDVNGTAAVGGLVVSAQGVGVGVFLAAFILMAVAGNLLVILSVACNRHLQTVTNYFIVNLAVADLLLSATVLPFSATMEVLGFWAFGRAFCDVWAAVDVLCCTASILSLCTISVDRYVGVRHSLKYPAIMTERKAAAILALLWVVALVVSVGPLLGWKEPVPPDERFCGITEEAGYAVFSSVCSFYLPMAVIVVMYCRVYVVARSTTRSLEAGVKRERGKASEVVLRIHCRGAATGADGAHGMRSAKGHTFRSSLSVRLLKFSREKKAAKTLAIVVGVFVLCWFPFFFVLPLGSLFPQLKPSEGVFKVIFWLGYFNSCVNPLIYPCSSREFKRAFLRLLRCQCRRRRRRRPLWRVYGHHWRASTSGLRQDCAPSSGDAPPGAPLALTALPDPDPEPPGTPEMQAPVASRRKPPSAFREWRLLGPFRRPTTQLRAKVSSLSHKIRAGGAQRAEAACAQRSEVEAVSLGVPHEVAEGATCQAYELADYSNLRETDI
Experiment: Adrenergic α1D selectivity assay, [3H]-prazosin binding to membranes
Conditions: inhibition of [3H]-prazosin binding, HEK cell membranes, read-out: α1 bind pIC50 (converted)
Description: Membranes were prepared from human embryonic kidney 293 ([…]) cells expressing recombinant human α1D receptor. These were diluted in Assay Buffer (50 mM HEPES, 1 mM EDTA, pH 7.4) to provide a final concentration of membranes that gave a clear window between maximum and minimum specific binding.
Assays were performed in U-bottomed 96-well polypropylene plates. 10 μL [^3H]-prazosin (0.3 nM final concentration) and […] of test compound (10× final concentration) were added to each test well. For each assay plate 8 replicates were obtained for [^3H]-prazosin binding in the presence of 10 μL vehicle (10% (v/v) DMSO in Assay Buffer; defining maximum binding) or 10 μL BMY7378 (10 μM final concentration; defining non-specific binding (NSB)). Membranes were then added to achieve a final volume of 100 μL. The plates were incubated for 2 hours at room temperature and then filtered onto PEI coated GF/B filter plates, pre-soaked for 1 hour in Assay Buffer, using a 96-well plate Tomtec cell harvester. Five washes with 250 μL wash buffer (50 mM HEPES, 1 mM EDTA, pH 7.4) were performed at 4° C. to remove unbound radioactivity. The plates were dried then sealed from underneath using Packard plate sealers and MicroScint-O (50 μL) was added to each well. The plates were sealed (TopSeal A) and filter-bound radioactivity was measured with a scintillation counter (TopCount, Packard BioScience) using a 3-minute counting protocol.
Total specific binding (B0) was determined by subtracting the mean NSB from the mean maximum binding. NSB values were also subtracted from values from all other wells. […] Data was fitted to a four parameter logistic equation to determine the compound potency, which was expressed as pIC50 (negative log molar concentration inducing 50% inhibition of [^3H]-prazosin binding).

Compound	IC50 [nM]
CCCC[C@@H](C)N(CCNCCc1ccc(O)c2c1OCC(=O)N2)C(=O)CCNCCc1ccc(F)c(C)c1 [Example 47, (R)-3-(4-Fluoro-3-methylphenethylamino)-N-(hexan-2-yl)-N-(2-(2-(5-hydroxy-3-oxo-3,4-dihydro-2H-benzo[b][1,4]oxazin-8-yl)ethylamino)ethyl)propanamide bis(trifluoroacetate)]	79.4
O=C1COc2c(CCNCCN(C(=O)CCOCCc3ccc(F)cc3)C3CCCCC3)ccc(O)c2N1 [Example 75, N-Cyclohexyl-3-(4-fluorophenethoxy)-N-(2-(2-(5-hydroxy-3-oxo-3,4-dihydro-2H-benzo[b][1,4]oxazin-8-yl)ethylamino)ethyl)propanamide trifluoroacetate]	631
CCCC[C@@H](C)N(CCNCCc1ccc(O)c2c1OCC(=O)N2)C(=O)CCNCCc1cccc(F)c1F [Example 53, (R)-3-(2,3-Difluorophenethylamino)-N-(hexan-2-yl)-N-(2-(2-(5-hydroxy-3-oxo-3,4-dihydro-2H-benzo[b][1,4]oxazin-8-yl)ethylamino)ethyl)propanamide bis(trifluoroacetate)]	200
CCCC[C@@H](C)N(CCNCCc1ccc(O)c2c1OCC(=O)N2)C(=O)CCNCCc1cccc(Cl)c1 [Example 44, (R)-3-(3-Chlorophenethylamino)-N-(hexan-2-yl)-N-(2-(2-(5-hydroxy-3-oxo-3,4-dihydro-2H-benzo[b][1,4]oxazin-8-yl)ethylamino)ethyl)propanamide bis(trifluoroacetate)]	50.1
CCOc1cccc(CCNCCC(=O)N(CCNCCc2ccc(O)c3[nH]c(=O)ccc23)C2CCCCCC2)c1 [Example 11, N-Cycloheptyl-3-(3-ethoxyphenethylamino)-N-(2-(2-(8-hydroxy-2-oxo-1,2-dihydroquinolin-5-yl)ethylamino)ethyl)propanamide bis(trifluoroacetate)]	316
CC(C)[C@@H](C)N(CCNCCc1ccc(O)c2[nH]c(=O)ccc12)C(=O)CCOCCc1ccccc1.Cl [Example 80, (R)—N-(2-(2-(8-Hydroxy-2-oxo-1,2-dihydroquinolin-5-yl)ethylamino)ethyl)-N-(3-methylbutan-2-yl)-3-phenethoxypropanamide hydrochloride]	501
CCCC[C@@H](C)N(CCNCCc1ccc(O)c2c1OCC(=O)N2)C(=O)CCNCCc1ccc(Cl)cc1 [Example 45, (R)-3-(4-Chlorophenethylamino)-N-(hexan-2-yl)-N-(2-(2-(5-hydroxy-3-oxo-3,4-dihydro-2H-benzo[b][1,4]oxazin-8-yl)ethylamino)ethyl)propanamide bis(trifluoroacetate)]	251
CCCC[C@@H](C)N(CCNCCc1ccc(O)c2c1OCC(=O)N2)C(=O)CCNCCc1cc(F)cc(F)c1 [Example 51, (R)-3-(3,5-Difluorophenethylamino)-N-(hexan-2-yl)-N-(2-(2-(5-hydroxy-3-oxo-3,4-dihydro-2H-benzo[b][1,4]oxazin-8-yl)ethylamino)ethyl)propanamide bis(trifluoroacetate)]	316
CCCC[C@@H](C)N(CCNCCc1ccc(O)c2c1OCC(=O)N2)C(=O)CCNCCc1cc(F)ccc1C [Example 57, (R)-3-(5-Fluoro-2-methylphenethylamino)-N-(hexan-2-yl)-N-(2-(2-(5-hydroxy-3-oxo-3,4-dihydro-2H-benzo[b][1,4]oxazin-8-yl)ethylamino)ethyl)propanamide bis(trifluoroacetate)]	100
CCCC[C@@H](C)N(CCNCCc1ccc(O)c2c1OCC(=O)N2)C(=O)CCNCCc1ccccc1 [Example 25, (R)—N-(Hexan-2-yl)-N-(2-(2-(5-hydroxy-3-oxo-3,4-dihydro-2H-benzo[b][1,4]oxazin-8-yl)ethylamino)ethyl)-3-(phenethylamino)propanamide bis(trifluoroacetate)]	63.1
O=C1COc2c(CCNCCN(C(=O)CCOCCc3cccc(F)c3)C3CCCCC3)ccc(O)c2N1 [Example 74, N-Cyclohexyl-3-(3-fluorophenethoxy)-N-(2-(2-(5-hydroxy-3-oxo-3,4-dihydro-2H-benzo[b][1,4]oxazin-8-yl)ethylamino)ethyl)propanamide trifluoroacetate]	794
O=C1COc2c(CCNCCN(C(=O)CCOCCc3cccc(Cl)c3)C3CCCCC3)ccc(O)c2N1 [Example 77, 3-(3-Chlorophenethoxy)-N-cyclohexyl-N-(2-(2-(5-hydroxy-3-oxo-3,4-dihydro-2H-benzo[b][1,4]oxazin-8-yl)ethylamino)ethyl)propanamide trifluoroacetate]	794
CC(C)[C@@H](C)N(CCNCCc1ccc(O)c2c1OCC(=O)N2)C(=O)CCNCCc1ccc(Cl)c(Cl)c1 [Example 59, (R)-3-(3,4-Dichlorophenethylamino)-N-(2-(2-(5-hydroxy-3-oxo-3,4-dihydro-2H-benzo[b][1,4]oxazin-8-yl)ethylamino)ethyl)-N-(3-methylbutan-2-yl)propanamide dihydrochloride]	200

More lines, now with the values ahead:

IC50 [nM]	Compound
158	O=C1COc2c(CCNCCN(C(=O)CCNCCc3ccc(Cl)cc3Cl)C3CCCCC3)ccc(O)c2N1 [Example 31, N-Cyclohexyl-3-(2,4-dichlorophenethylamino)-N-(2-(2-(5-hydroxy-3-oxo-3,4-dihydro-2H-benzo[b][1,4]oxazin-8-yl)ethylamino)ethyl)propanamide bis(trifluoroacetate)]
501	O=C1COc2c(CCNCCN(C(=O)CCNCCc3cccc(Cl)c3F)C3CCCCC3)ccc(O)c2N1 [Example 39, 3-(3-Chloro-2-fluorophenethylamino)-N-cyclohexyl-N-(2-(2-(5-hydroxy-3-oxo-3,4-dihydro-2H-benzo[b][1,4]oxazin-8-yl)ethylamino)ethyl)propanamide bis(trifluoroacetate)]
126	O=C1COc2c(CCNCCN(C(=O)CCNCCc3cccc(Cl)c3)C3CCCCC3)ccc(O)c2N1 [Example 27, 3-(3-Chlorophenethylamino)-N-cyclohexyl-N-(2-(2-(5-hydroxy-3-oxo-3,4-dihydro-2H-benzo[b][1,4]oxazin-8-yl)ethylamino)ethyl)propanamide bis(trifluoroacetate)]
158	O=C1COc2c(CCNCCN(C(=O)CCNCCc3ccc(F)c(Cl)c3)C3CCCCC3)ccc(O)c2N1 [Example 37, 3-(3-Chloro-4-fluorophenethylamino)-N-cyclohexyl-N-(2-(2-(5-hydroxy-3-oxo-3,4-dihydro-2H-benzo[b][1,4]oxazin-8-yl)ethylamino)ethyl)propanamide bis(trifluoroacetate)]
200	O=C1COc2c(CCNCCN(C(=O)CCNCCc3cccc(F)c3)C3CCCCCC3)ccc(O)c2N1 [Example 69, N-Cycloheptyl-3-(3-fluorophenethylamino)-N-(2-(2-(5-hydroxy-3-oxo-3,4-dihydro-2H-benzo[b][1,4]oxazin-8-yl)ethylamino)ethyl)propanamide bis(trifluoroacetate)]
251	O=C1COc2c(CCNCCN(C(=O)CCNCCc3cc(F)cc(Cl)c3)C3CCCCC3)ccc(O)c2N1 [Example 41, 3-(3-Chloro-5-fluorophenethylamino)-N-cyclohexyl-N-(2-(2-(5-hydroxy-3-oxo-3,4-dihydro-2H-benzo[b][1,4]oxazin-8-yl)ethylamino)ethyl)propanamide (trifluoroacetate)]
31.6	Cc1cc(CCNCCC(=O)N(CCNCCc2ccc(O)c3c2OCC(=O)N3)C2CCCCC2)ccc1F [Example 40, N-Cyclohexyl-3-(4-fluoro-3-methylphenethylamino)-N-(2-(2-(5-hydroxy-3-oxo-3,4-dihydro-2H-benzo[b][1,4]oxazin-8-yl)ethylamino)ethyl)propanamide bis(trifluoroacetate)]
63.1	O=C1COc2c(CCNCCN(C(=O)CCNCCc3cc(F)ccc3F)C3CCCCCC3)ccc(O)c2N1 [Example 64, N-Cycloheptyl-3-(2,5-difluorophenethylamino)-N-(2-(2-(5-hydroxy-3-oxo-3,4-dihydro-2H-benzo[b][1,4]oxazin-8-yl)ethylamino)ethyl)propanamide bis(trifluoroacetate)]
